Experimental data published in ChEMBL document CHEMBL4610070, “Talauxins: Hybrid Phenalenone Dimers from Talaromyces stipitatus” (J Nat Prod, 2020).
Converted amounts (≈) assume the structure as drawn. The source made the active and inactive calls. The rule behind the calls is not given here.

Tests used:
[1] = system: Saccharomyces cerevisiae; test: Antifungal activity against Saccharomyces cerevisiae ATCC 9763 assessed as reduction in microbial growth after incubated for 48 hrs by bromocresol green dye based assay; assay type: functional, organism-based; settings: ATCC 9763, 48 h
[2] = system: Candida albicans; test: Antifungal activity against Candida albicans ATCC 10231 assessed as reduction in microbial growth after incubated for 48 hrs by bromocresol green dye based assay; assay type: functional, organism-based
[3] = system: Saccharomyces cerevisiae; test: Antifungal activity against Saccharomyces cerevisiae ATCC 9763 assessed as reduction in microbial growth up to 100 ug/ml after incubated for 48 hrs by bromocresol green dye based assay; assay type: functional, organism-based
[4] = system: Candida albicans; test: Antifungal activity against Candida albicans ATCC 10231 assessed as reduction in microbial growth up to 100 ug/ml after incubated for 48 hrs by bromocresol green dye based assay; assay type: functional, organism-based
[5] = species on record: Mus musculus; test: Antiproliferative activity against mouse NS1 cells assessed as reduction in cell viability up to 100 ug/ml after 48 hrs by resazurin dye based assay; assay type: functional
[6] = system: Escherichia coli; test: Antibacterial activity against Escherichia coli ATCC 25922 assessed as reduction in microbial growth up to 100 ug/ml after incubated for 48 hrs by resazurin dye based assay; assay type: functional, organism-based
[7] = system: Bacillus subtilis; test: Antibacterial activity against Bacillus subtilis ATCC 6633 assessed as reduction in microbial growth up to 100 ug/ml after incubated for 48 hrs by resazurin dye based assay; assay type: functional, organism-based
[8] = system: Bacillus subtilis; test: Antibacterial activity against Bacillus subtilis ATCC 6633 assessed as reduction in microbial growth after incubated for 48 hrs by resazurin dye based assay; assay type: functional, organism-based; settings: ATCC 6633, 48 h
[9] = system: Escherichia coli; test: Antibacterial activity against Escherichia coli ATCC 25922 assessed as reduction in microbial growth after incubated for 48 hrs by resazurin dye based assay; assay type: functional, organism-based
[10] = Antiproliferative activity against mouse NS1 cells assessed as reduction in cell viability after 48 hrs by resazurin dye based assay; assay type: functional; settings: for MIC: 48 h; for IC50: NS1, 48 h

| SMILES | IC50 [1] | IC50 [2] | Activity [3] | Activity [4] | Activity [5] | Activity [6] | Activity [7] | IC50 [8] | IC50 [9] | MIC [10] | IC50 [10] | MIC [8] |
| --- | --- | --- | --- | --- | --- | --- | --- | --- | --- | --- | --- | --- |
| Clc1ccccc1C(c1ccccc1)(c1ccccc1)n1ccnc1 [CLOTRIMAZOLE] | 0.4 µM | Not Active | – | – | – | – | – | – | – | – | – | – |
| Cc1cc(O)c2c3c1C(=O)[C@@H]1C4=C(C(=O)c5cn([C@H](C(=O)O)C(C)C)c(=O)c6c(O)cc(C)c4c56)[C@@]3(COC2=O)[C@H]1O | – | – | inactive | inactive | inactive | inactive | inactive | – | – | – | – | – |
| CO[C@@]12c3c(C)cc(O)c4c(=O)n([C@@H](CCC(N)=O)C(=O)O)cc(c34)C(=O)[C@@H]1[C@]13COC(=O)c4c(O)cc(C)c(c41)C(=O)[C@H]2[C@@H]3OC(C)=O | – | – | inactive | inactive | inactive | inactive | inactive | – | – | – | – | – |
| CO[C@@]12c3c(C)cc(O)c4c(=O)n([C@@H](CC(C)C)C(=O)O)cc(c34)C(=O)[C@@H]1[C@]13COC(=O)c4c(O)cc(C)c(c41)C(=O)[C@H]2[C@@H]3OC(C)=O | – | – | inactive | inactive | inactive | inactive | inactive | – | – | – | – | – |
| CO[C@@]12c3c(C)cc(O)c4c(=O)occ(c34)C(=O)[C@@H]1[C@]13COC(=O)c4c(O)cc(C)c(c41)C(=O)[C@H]2[C@@H]3OC(C)=O | > 200 µM | Not Active | – | – | – | – | – | > 200 µM | Not Active | 100 µg/mL (≈ 183 µM) | 140 µM | – |
| CO[C@@]12c3c(C)cc(O)c4c(=O)n([C@@H](CCC(=O)O)C(=O)O)cc(c34)C(=O)[C@@H]1[C@]13COC(=O)c4c(O)cc(C)c(c41)C(=O)[C@H]2[C@@H]3OC(C)=O | – | – | inactive | inactive | inactive | inactive | inactive | – | – | – | – | – |
| Cc1cc(O)c2c3c(c(O)cc(O)c13)C(=O)C(O)=C2O | > 400 µM | Not Active | – | – | – | – | – | 265 µM | Not Active | 25 µg/mL (≈ 91.2 µM) | 70 µM | 100 µg/mL |
| CC[C@H](C)[C@@H](C(=O)O)n1cc2c3c(c(C)cc(O)c3c1=O)[C@]1(OC)[C@H](C2=O)[C@]23COC(=O)c4c(O)cc(C)c(c42)C(=O)[C@H]1[C@@H]3OC(C)=O | – | – | inactive | inactive | inactive | inactive | inactive | – | – | – | – | – |
| O=c1[nH]cc(F)c(=O)[nH]1 [FLUOROURACIL] | – | – | – | – | – | – | – | – | – | – | 4.6 µM | – |
| CC1(C)S[C@@H]2[C@H](NC(=O)[C@H](N)c3ccccc3)C(=O)N2[C@H]1C(=O)O [AMPICILLIN] | – | – | – | – | – | – | – | 0.9 µM | Not Active | – | – | – |
| CC[C@@H](C)[C@H](C(=O)O)n1cc2c3c(c(C)cc(O)c3c1=O)[C@]1(OC)[C@H](C2=O)[C@]23COC(=O)c4c(O)cc(C)c(c42)C(=O)[C@H]1[C@@H]3OC(C)=O | – | – | inactive | inactive | inactive | inactive | inactive | – | – | – | – | – |
| CO[C@@]12c3c(C)cc(O)c4c(=O)n([C@H](C(=O)O)C(C)C)cc(c34)C(=O)[C@@H]1[C@]13COC(=O)c4c(O)cc(C)c(c41)C(=O)[C@H]2[C@@H]3OC(C)=O | – | – | inactive | inactive | inactive | inactive | inactive | – | – | – | – | – |
| CC(=O)CC1(O)C(=O)c2c(O)cc(C)c3c(O)cc(O)c(c23)C1=O (stereo not drawn) | – | – | inactive | inactive | inactive | inactive | inactive | – | – | – | – | – |
| CO[C@@]12c3c(C)cc(O)c4c(=O)n([C@H](CC(C)C)C(=O)O)cc(c34)C(=O)[C@@H]1[C@]13COC(=O)c4c(O)cc(C)c(c41)C(=O)[C@H]2[C@@H]3OC(C)=O | – | – | inactive | inactive | inactive | inactive | inactive | – | – | – | – | – |
